Experiments:
human KIAA0001 receptor [1] = target: T1, human KIAA0001 receptor (Homo sapiens, UniProt Q15391); experiment: Specificity of response: nucleotide di-phosphate sugar spotted onto agar plate infused with yeast carrying human KIAA0001 receptor and FUS1-LacZ reporter; assay type: cell-based; details: 10 nmoles (1 microliter of 10 mM solution) spotted onto agar plate
T1 sequence (Q15391 1-338): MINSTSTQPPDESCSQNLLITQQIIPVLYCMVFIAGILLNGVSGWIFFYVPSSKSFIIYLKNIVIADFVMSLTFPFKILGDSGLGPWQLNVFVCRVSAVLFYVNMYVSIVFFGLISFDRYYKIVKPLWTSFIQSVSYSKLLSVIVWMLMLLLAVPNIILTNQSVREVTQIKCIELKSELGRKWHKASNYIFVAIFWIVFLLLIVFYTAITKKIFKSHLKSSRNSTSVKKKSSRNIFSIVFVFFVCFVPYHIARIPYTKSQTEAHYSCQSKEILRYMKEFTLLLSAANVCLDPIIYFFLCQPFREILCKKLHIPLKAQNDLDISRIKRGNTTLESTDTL
Protocol: The specificity of this response was determined by spotting 10 nmoles (1 microliter of 10 mM solution) of each nucleotide di-phosphate sugar onto an agar plate infused with a yeast strain carrying the human KIAA0001 receptor and the FUS1-LacZ reporter, as described above.

human KIAA0001 receptor [2] = target: T1, human KIAA0001 receptor; details: FUS1-LacZ yeast expressing human KIAA0001 receptor

| SMILES | response on agar plate (FUS1-LacZ reporter) (human KIAA0001 receptor [1]) | response determined by expression of -galactosidase (human KIAA0001 receptor [2]) |
| --- | --- | --- |
| Nc1ncnc2c1ncn2[C@@H]1O[C@H](COP(=O)(O)OP(=O)(O)O[C@H]2O[C@H](CO)[C@@H](O)[C@H](O)[C@H]2O)[C@@H](O)[C@H]1O [ADP-glucose] | failed to produce a response | – |
| Nc1ncnc2c1ncn2[C@@H]1O[C@H](COP(=O)(O)OP(=O)(O)O[C@H]2O[C@H](CO)[C@@H](O)[C@H](O)[C@@H]2O)[C@@H](O)[C@H]1O [ADP-mannose] | failed to produce a response | – |
| Nc1ncnc2c1ncn2[C@@H]1O[C@H](COP(=O)(O)OP(=O)(O)OC[C@H]2OC(O)[C@H](O)[C@@H]2O)[C@@H](O)[C@H]1O (stereo partly drawn) [ADP-ribose] | failed to produce a response | – |
| Nc1ccn([C@@H]2O[C@H](COP(=O)(O)OP(=O)(O)O[C@H]3O[C@H](CO)[C@@H](O)[C@H](O)[C@H]3O)[C@@H](O)[C@H]2O)c(=O)n1 [CDP-glucose] | failed to produce a response | – |
| C[C@@H]1O[C@H](OP(=O)(O)OP(=O)(O)OC[C@H]2O[C@@H](n3cnc4c(=O)[nH]c(N)nc43)[C@H](O)[C@@H]2O)[C@@H](O)[C@H](O)[C@@H]1O [GDP-fucose] | failed to produce a response | – |
| Nc1nc2c(ncn2[C@@H]2O[C@H](COP(=O)(O)OP(=O)(O)O[C@H]3O[C@H](CO)[C@@H](O)[C@H](O)[C@H]3O)[C@@H](O)[C@H]2O)c(=O)[nH]1 [GDP-glucose] | failed to produce a response | – |
| Nc1nc2c(ncn2[C@@H]2O[C@H](COP(=O)(O)OP(=O)(O)O[C@H]3O[C@H](CO)[C@@H](O)[C@H](O)[C@@H]3O)[C@@H](O)[C@H]2O)c(=O)[nH]1 [GDP-mannose] | failed to produce a response | – |
| Cc1cn([C@H]2C[C@H](O)[C@@H](COP(=O)(O)OP(=O)(O)O[C@H]3O[C@H](CO)[C@@H](O)[C@H](O)[C@H]3O)O2)c(=O)[nH]c1=O [TDP-glucose] | failed to produce a response | – |
| CC(=O)N[C@H]1[C@@H](OP(=O)(O)OP(=O)(O)OC[C@H]2O[C@@H](n3ccc(=O)[nH]c3=O)[C@H](O)[C@@H]2O)O[C@H](CO)[C@@H](O)[C@@H]1O [UDP-N-acetyl glucosamine] | positive response | receptor-dependentresponse |
| O=C(O)[C@H]1O[C@H](OP(=O)(O)OP(=O)(O)OC[C@H]2O[C@@H](n3ccc(=O)[nH]c3=O)[C@H](O)[C@@H]2O)[C@H](O)[C@@H](O)[C@@H]1O [UDP-glucuronic acid] | positive response | receptor-dependentresponse |

Reference: patent US6238873A, “Methods of screening for agonists and antagonists of the interaction between the human KIAA0001 receptor and ligands thereof” (Smithkline Beecham Corporation, priority 1999, dated 2001)
